≈ marks a conversion by molar mass, not a printed value. Like-named read-outs stand apart in the source and are kept apart here.
Experiments:
Type in all cases: cell-based
[1] = test system: Staphylococcus aureus ATCC 29213; assay: MIC measured by fluid broth microdilution method (quality control); details: ATCC29213
[2] = test system: methicillin-resistant Staphylococcus aureus (MRSA) isolates; assay: MIC measured by agar dilution method (CLSI); details: Staphylococcus aureus, MRSA, agar dilution
Protocol: (§1) Spontaneous mutation and minimal inhibit concentration (MIC) tested by agar dilution method, the above compounds are respectively prepared into a stock solution (100X) with a concentration 100 times the highest final concentration in corresponding solvents and used on the same day. Before use, I is further diluted with DMSO; and oxacillin, rifampicin and levofloxacin are further diluted with water.
(§2) Bacterial isolates: Staphylococcus aureus isolates are retrieved from the −80° C. storage room of Micromyx Culture Collection, thawed, plated onto Tryptic Soy Agar+5% sheep blood (Remel; Lenexa, Kans.), and then incubated aerobically at 35° C. overnight. S. aureus ATCC 29213 (MRSA; MMX 0100) was included during testing only for the purpose of quality control. Test Media: The isolates were tested in both the agar dilution MIC assay and the spontaneous mutation assay using Mueller-Hinton Agar (MHA; BD/BBL; Lot No. 6229829 & 4216798). Inocula of each isolate were suspended in cation-adjusted Mueller-Hinton Broth (CAMHB) (BD/BBL; Lot Nos. 5257869 & 6258541). Sodium chloride (Sigma-Aldrich; Lot No. SLBL0434V) was added to CAMHB at a final concentration of 2% when testing oxacillin. Dilutions of bacterial cell suspensions for the purpose of performing colony counts were also made in CAMHB.
(§3) MIC measured by agar dilution method: according to the recommendation from the Clinical and Laboratory Standards Institute (CLSI), the MIC value is measured by the agar dilution method. […] Each test agent was combined with molten MHA agar (50-55° C.) at a ratio of 0.2 mL of 100× test agent to 19.8 mL agar in a sterile tube, mixed gently, and then poured into a sterile petri plate (BD Falcon). Plates were allowed to solidify at room temperature. A 0.5 McFarland standard bacterial suspension was prepared, diluted 1:10 in CAMHB, and transferred to the wells of a stainless steel replicator block before stamping onto plates containing drug, resulting in 10^4 CFU/spot. After allowing the inoculum to dry on the surface of the agar, the plates were inverted, incubated aerobically at 35° C. for 20-24 hr, and inspected for growth.

[3] = test system: Staphylococcus aureus ATCC 29213; assay: MIC measured by agar dilution method, quality control strain; details: strain 100, MSSA QC strain
Protocol: as §1, §2, §3
In parallel experiments, a standard bacterium suspension with a […] turbidity of 0.5 is prepared as a standard inoculum for agar dilution analysis (10^4 CFU/point). […] In this step, the broths and drugs used in the spontaneous mutation analysis are used to confirm that the concentration of the drug stock solution can inhibit the growth of the standard inoculum. The quality of the levofloxacin stock solution is controlled by a standard inoculum and levofloxacin of 8-0.008 μg/mL, and separate agar dilution analysis is performed. […]

[4] = test system: Staphylococcus aureus MMX 3265, 3270, 3278, and 6312; details: for Cell counts (mean): 1 used if no colonies
Protocol: Each test agent stock solution was prepared at 100× the final desired test concentration for the spontaneous mutation frequency assay agar plates.
The drug/agar mixture was dispensed into sterile 150×15 mm plates (BD Falcon) to a volume of 50 mL in each plate. The target inoculum for each spontaneous mutation plate was at least 10^9 CFU. Plates were allowed to solidify at room temperature.
The inocula for the spontaneous mutation frequency assay were prepared by using sterile cotton swabs to harvest colonies from freshly grown isolates and preparing a dense cell suspension (approximately 1.70 on the turbidity meter) in 6 mL of CAMHB. The viable count of this suspension was determined by plating serial ten-fold dilutions onto MHA and taking the average of duplicate counts. For the spontaneous mutation assay, 0.25 mL of inoculum was spread onto the surface of duplicate 150×15 mm plates for each drug concentration tested, allowed to dry, and then the plates were inverted and incubated at 35° C. for 48 hr prior to counting viable colonies. The spontaneous mutation frequency was calculated using the following equation:
Spontaneous mutation frequency=average number of colonies on selected plates/total number of cells incubated onto each plate
If there were no colonies on the antibiotic selection plates, the spontaneous mutation frequency was reported as less than or equal to the mutation frequency that would have resulted from the presence of one colony (e.g. 1/total number of cells inoculated onto the plate).

[5] = isolate 3265 LEV^R RIF^S, drug 0.5 μg/mL in plates (combination 0.5 each), inoculation 5.40E+09 CFU
[6] = isolate 3265 LEV^R RIF^S, drug 2 μg/mL in plates (combination 2 each), inoculation 5.40E+09 CFU
[7] = isolate 3265 LEV^R RIF^S, drug 8 μg/mL in plates (combination 8 each), inoculation 5.40E+09 CFU
[8] = isolate 3270 LEV^R RIF^S, drug 0.5 μg/mL in plates (combination 0.5 each), inoculation 5.30E+09 CFU
[9] = isolate 3270 LEV^R RIF^S, drug 2 μg/mL in plates (combination 2 each), inoculation 5.30E+09 CFU
[10] = isolate 3270 LEV^R RIF^S, drug 8 μg/mL in plates (combination 8 each), inoculation 5.30E+09 CFU
[11] = isolate 3278 LEV^S RIF^S, drug 0.5 μg/mL in plates (combination 0.5 each), inoculation 3.80E+09 CFU
[12] = isolate 3278 LEV^S RIF^S, drug 2 μg/mL in plates (combination 2 each), inoculation 3.80E+09 CFU
[13] = isolate 3278 LEV^S RIF^S, drug 8 μg/mL in plates (combination 8 each), inoculation 3.80E+09 CFU
[14] = isolate 6312 LEV^R RIF^S, drug 0.5 μg/mL in plates (combination 0.5 each), inoculation 3.90E+09 CFU
[15] = isolate 6312 LEV^R RIF^S, drug 2 μg/mL in plates (combination 2 each), inoculation 3.90E+09 CFU
[16] = isolate 6312 LEV^R RIF^S, drug 8 μg/mL in plates (combination 8 each), inoculation 3.90E+09 CFU

CO[C@H]1/C=C/O[C@@]2(C)Oc3c(C)c(O)c4c(O)c(c(/C=N/N5CCN(C)CC5)c(O)c4c3C2=O)NC(=O)/C(C)=C\C=C\[C@H](C)[C@H](O)[C@@H](C)[C@@H](O)[C@@H](C)[C@H](OC(C)=O)[C@@H]1C [Rifampicin]
MIC [1]: 8 ng/mL (≈ 0.00972 µM)
MIC ([2]; strain 3085, LEV^S RIF^S): 0.015 µg/mL (≈ 0.0182 µM)
MIC ([2]; strain 3090, LEV^R RIF^S): 0.008 µg/mL (≈ 0.00972 µM)
MIC ([2]; strain 3094, LEV^R RIF^S): 0.015 µg/mL (≈ 0.0182 µM)
MIC ([2]; strain 3098, LEV^S RIF^S): 0.015 µg/mL (≈ 0.0182 µM)
MIC ([2]; strain 3265, LEV^R RIF^S): 0.008 µg/mL (≈ 0.00972 µM)
MIC ([2]; strain 3266, LEVR RIFS): 0.008 µg/mL (≈ 0.00972 µM)
MIC ([2]; strain 3270, LEV^R RIF^S): 0.015 µg/mL (≈ 0.0182 µM)
MIC ([2]; strain 3271, LEV^R RIF^S): 0.015 µg/mL (≈ 0.0182 µM)
MIC ([2]; strain 3277, LEV^S RIF^S): 0.015 µg/mL (≈ 0.0182 µM)
MIC ([2]; strain 3278, LEV^S RIF^S): 0.015 µg/mL (≈ 0.0182 µM)
MIC ([2]; strain 6312, LEV^R RIF^S): 0.015 µg/mL (≈ 0.0182 µM)
MIC ([2]; strain 6313, LEV^R RIF^S): 0.015 µg/mL (≈ 0.0182 µM)
MIC ([2]; strain 6315, LEV^R RIF^S): 0.015 µg/mL (≈ 0.0182 µM)
MIC ([2]; strain 6498, LEV^R RIF^S): 0.015 µg/mL (≈ 0.0182 µM)
MIC ([2]; strain 6501, LEV^R RIF^S): 0.015 µg/mL (≈ 0.0182 µM)
MIC ([2]; strain 6505, LEV^R RIF^S): 0.015 µg/mL (≈ 0.0182 µM)
MIC ([2]; strain 7771, LEV^R RIF^S): 0.008 µg/mL (≈ 0.00972 µM)
MIC ([2]; strain 7772, LEV^S RIF^S): 0.015 µg/mL (≈ 0.0182 µM)
MIC ([2]; strain 7773, LEV^R RIF^S): 0.015 µg/mL (≈ 0.0182 µM)
MIC ([2]; strain 7774, LEV^R RIF^S): 0.015 µg/mL (≈ 0.0182 µM)
MIC ([2]; strain 7775, LEV^R): 0.015 µg/mL (≈ 0.0182 µM)
MIC [3]: 0.015 µg/mL (≈ 0.0182 µM)
Cell counts (mean) ([4]; isolate 3265, drug 0.5 μg/mL): 55
Cell counts (mean) ([4]; isolate 3265, drug 2 μg/mL): 29
Cell counts (mean) ([4]; isolate 3265, drug 8 μg/mL): 36
Cell counts plate A [4, 5]: 52
Cell counts plate B [4, 5]: 57
Mutation frequency [4, 5]: 1.01E−08
Cell counts plate A [4, 6]: 27
Cell counts plate B [4, 6]: 30
Mutation frequency [4, 6]: 5.28E−09
Cell counts plate A [4, 7]: 43
Cell counts plate B [4, 7]: 29
Mutation frequency [4, 7]: 6.67E−09
Cell counts (mean) ([4]; isolate 3270, drug 0.5 μg/mL): 83
Cell counts (mean) ([4]; isolate 3270, drug 2 μg/mL): 49
Cell counts (mean) ([4]; isolate 3270, drug 8 μg/mL): 43
Cell counts plate A [4, 8]: 93
Cell counts plate B [4, 8]: 73
Mutation frequency [4, 8]: 1.57E−08
Cell counts plate A [4, 9]: 44
Cell counts plate B [4, 9]: 53
Mutation frequency [4, 9]: 9.15E−09
Cell counts plate A [4, 10]: 43
Cell counts plate B [4, 10]: 42
Mutation frequency [4, 10]: 8.02E−09
Cell counts (mean) ([4]; isolate 3278, drug 0.5 μg/mL): 47
Cell counts (mean) ([4]; isolate 3278, drug 2 μg/mL): 29
Cell counts (mean) ([4]; isolate 3278, drug 8 μg/mL): 34
Cell counts plate A [4, 11]: 49
Cell counts plate B [4, 11]: 44
Mutation frequency [4, 11]: 1.22E−08
Cell counts plate A [4, 12]: 20
Cell counts plate B [4, 12]: 37
Mutation frequency [4, 12]: 7.50E−09
Cell counts plate A [4, 13]: 34
Cell counts plate B [4, 13]: 33
Mutation frequency [4, 13]: 8.82E−09
Cell counts (mean) ([4]; isolate 6312, drug 0.5 μg/mL): 32
Cell counts (mean) ([4]; isolate 6312, drug 2 μg/mL): 29
Cell counts (mean) ([4]; isolate 6312, drug 8 μg/mL): 34
Cell counts plate A [4, 14]: 34
Cell counts plate B [4, 14]: 29
Mutation frequency [4, 14]: 8.08E−09
Cell counts plate A [4, 15]: 36
Cell counts plate B [4, 15]: 22
Mutation frequency [4, 15]: 7.44E−09
Cell counts plate A [4, 16]: 38
Cell counts plate B [4, 16]: 29
Mutation frequency [4, 16]: 8.59E−09
